# How the values were obtained:
# mDCs = assay: Lactose and GM3 polar head group treatment of mDCs before LUV/VLP capture; assay type: cell-based, human; conditions: mDCs pre-incubated with 5 to 10 mM compound, relative to mock-treated mDCs
# Experimental: mDCs were preincubated with or without 5 or 10 mM of lactose (Sigma-Aldrich Co., Saint Louis, Mo., US) and soluble GM3 carbohydrate head group (Carbosynth Ltd., Compton, Berkshire, GB) for 30 min at RT. Cells were then pulsed with 50 μM of GM3-containing LUVHIv-tRed and 75 ng of sucrose-pelleted VLPHIv-Gag-eGFP Gag for 2 h at 37° C., at a final concentration of 5 or 10 mM for the compounds tested. Cells were analyzed by FACS as described previously.
# Siglec-1 [1] = biological target: T1, Siglec-1 (Homo sapiens, UniProt Q9BZZ2); assay: VLP capture by LPS mDCs pre-incubated with α-Siglec-1 mAbs; assay type: cell-based; parameters: Siglec-1 expressed in LPS mDCs capture distinct ganglioside containing vesicles; endogenous in cells; host or cells: LPS-matured monocyte-derived dendritic cells (LPS mDCs) from donor PBMCs; conditions: 2 μg/ml mAb 7D2 treated with at least 100-fold molar excess of human recombinant protein
# Experimental: FIG. 11. Siglec-1 expressed in LPS mDCs capture distinct ganglioside containing vesicles, such as HIV-1 viral-like particles, liposomes, and exosomes. Capture of VLPHIV-Gag-eGFP by LPS mDCs that had been pre-incubated with decreasing concentrations of α-Siglec-1 mAb 7D2 before VLP exposure for 30 min at 37° C.
# FIG. 12. Capture of VLPHIV-Gag-eGFP by LPS mDCs that had been pre-incubated with or without 2 μg/ml of α-Siglec-1 mAb 7D2 previously treated or not with at least a 100-fold molar excess of the indicated human recombinant proteins. Of note, Siglec-14 shares 100% of amino acid homology with Siglec-5 in the V-set domain.
# FIG. 13. Blocking effect of α-Siglec-1 mAb 7-239. (A) Capture of VLPHIV-Gag-eGFP by LPS mDCs that had been pre-incubated with decreasing concentrations of α-Siglec-1 mAb 7-239 before VLP exposure for 30 min at 37° C. […] (B) Capture of VLPHIV-Gag-eGFP by LPS mDCs that had been pre-incubated with 10 μg/ml of the indicated mAbs before VLP exposure for 3 h at 37° C.
# Siglec-1 [2] = biological target: T1, Siglec-1; assay: VLP capture by Siglec-1 transfected Raji B cells; assay type: cell-based; conditions: mAbs 10 μg/ml; sialyllactose at indicated concentrations, 30 min prior to VLP pulse
# Experimental: Raji cells (2×10^6) were transfected with vector backbone pCMV6-Entry (Origene) comprising the coding region of Siglec-1, Siglec-5, or Siglec-7 using Amaxa nucleofector as recommended by the manufacturer. At 36 h posttransfection, cells were assessed for VLP capture and HIV-1 trans-infection (at a ratio 2:1) as described above. When indicated, cells were pre-incubated with decreasing concentrations of 3′-Sialyllactose (Carbosynth) or Lactose (Sigma-Aldrich) 30 min prior to VLP pulse. In experiments with envelope-deficient viruses, 5×10^5 cells were pulsed with 100 ng of p24^Gag estimated by ELISA for 4 h at 37° C. and assessed for capture and trans-infection (at a ratio 2:1) as aforementioned. HEK-293T cells were transfected using Fugene HD (Promega) and assessed 24 h posttransfection as described for Raji cells. Trans-infection of HEK-293T was tested in a different luminometer (Luminoskan Ascent, Thermo Labsystems), and collected data were normalized to 100%. Transfection efficiency in both cell types was assessed staining cells with anti-Siglec-1-PE 7-239 mAb, anti-Siglec-7-PE 5-386 mAb (AbD Serotec), and anti-Siglec-5/14-PE 1A5 mAb (Biolegend) and evaluated by FACS. Stable Raji DC-SIGN cells were labeled with anti-DC-SIGN-PE DCN46 mAb (BD Pharmigen).
# T1 sequence (Q9BZZ2 20-1709): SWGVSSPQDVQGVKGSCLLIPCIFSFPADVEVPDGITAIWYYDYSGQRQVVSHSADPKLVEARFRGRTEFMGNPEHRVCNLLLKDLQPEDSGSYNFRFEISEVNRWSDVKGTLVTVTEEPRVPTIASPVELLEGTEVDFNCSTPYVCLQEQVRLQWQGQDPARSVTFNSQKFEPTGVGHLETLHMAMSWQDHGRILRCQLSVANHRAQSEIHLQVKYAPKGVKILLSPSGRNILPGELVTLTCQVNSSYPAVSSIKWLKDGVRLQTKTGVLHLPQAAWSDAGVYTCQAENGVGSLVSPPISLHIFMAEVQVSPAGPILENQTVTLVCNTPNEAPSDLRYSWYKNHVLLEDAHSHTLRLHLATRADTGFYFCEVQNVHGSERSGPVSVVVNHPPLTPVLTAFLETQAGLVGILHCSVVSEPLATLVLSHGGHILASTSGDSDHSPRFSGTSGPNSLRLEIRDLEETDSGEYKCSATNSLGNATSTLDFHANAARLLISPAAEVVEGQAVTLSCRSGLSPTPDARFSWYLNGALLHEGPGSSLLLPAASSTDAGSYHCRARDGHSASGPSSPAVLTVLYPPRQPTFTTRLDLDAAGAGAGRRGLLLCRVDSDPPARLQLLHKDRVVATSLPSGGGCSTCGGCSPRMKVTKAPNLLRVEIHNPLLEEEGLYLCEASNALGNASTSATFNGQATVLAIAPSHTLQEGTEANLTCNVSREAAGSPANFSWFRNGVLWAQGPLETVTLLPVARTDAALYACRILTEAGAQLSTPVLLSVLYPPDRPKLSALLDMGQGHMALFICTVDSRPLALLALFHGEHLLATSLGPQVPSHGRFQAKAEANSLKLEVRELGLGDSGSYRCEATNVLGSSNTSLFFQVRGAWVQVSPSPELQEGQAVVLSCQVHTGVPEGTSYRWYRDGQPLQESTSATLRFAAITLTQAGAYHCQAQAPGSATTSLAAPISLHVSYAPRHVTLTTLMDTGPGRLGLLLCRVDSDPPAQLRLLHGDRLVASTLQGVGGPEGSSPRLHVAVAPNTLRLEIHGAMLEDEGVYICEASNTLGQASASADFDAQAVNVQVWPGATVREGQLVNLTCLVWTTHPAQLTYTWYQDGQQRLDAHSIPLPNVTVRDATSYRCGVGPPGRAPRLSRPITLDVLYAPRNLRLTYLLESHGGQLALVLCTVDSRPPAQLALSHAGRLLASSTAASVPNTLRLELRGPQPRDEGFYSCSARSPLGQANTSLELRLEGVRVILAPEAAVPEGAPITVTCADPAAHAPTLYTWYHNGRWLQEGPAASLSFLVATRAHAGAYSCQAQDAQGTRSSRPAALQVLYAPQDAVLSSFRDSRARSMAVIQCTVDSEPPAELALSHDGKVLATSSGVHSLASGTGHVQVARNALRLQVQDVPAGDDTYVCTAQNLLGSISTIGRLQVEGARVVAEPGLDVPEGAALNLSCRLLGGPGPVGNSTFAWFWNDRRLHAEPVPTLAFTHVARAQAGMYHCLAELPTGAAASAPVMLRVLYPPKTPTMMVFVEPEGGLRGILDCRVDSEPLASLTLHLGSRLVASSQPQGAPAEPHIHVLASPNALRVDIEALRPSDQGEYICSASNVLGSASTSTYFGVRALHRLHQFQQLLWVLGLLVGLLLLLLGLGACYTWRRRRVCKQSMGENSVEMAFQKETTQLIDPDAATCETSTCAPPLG
molecule,measurement,setting,value
CC(=O)N[C@H]1[C@H]([C@H](O)[C@H](O)CO)O[C@@](O[C@H]2[C@@H](O)[C@@H](CO)O[C@@H](O[C@H]3[C@H](O)[C@@H](O)C(O)O[C@@H]3CO)[C@@H]2O)(C(=O)O)C[C@@H]1O (stereo partly drawn) [soluble GM3],capture of GM3-containing LUVHIV-tRed by mDCs in the presence of soluble carbohydrate,mDCs,completely blocked
same,capture of VLPHIV-Gag-eGFP by mDCs in the presence of soluble carbohydrate,mDCs,completely blocked
same,capture of GM3-containing LUVHIV-tRed by mDCs in the presence of soluble carbohydrate,mDCs; listed as GM3 polar head group,captured less particles
same,capture of VLPHIV-Gag-eGFP by mDCs in the presence of soluble carbohydrate,mDCs; listed as GM3 polar head group,captured less particles
purified Siglec-1: human recombinant Siglec-1 protein used to pre-treat mAb 7D2,VLP capture by LPS mDCs with mAb 7D2 pre-incubated with purified protein,Siglec-1 [1],completely restored VLP capture
"CC(=O)N[C@H]1[C@H]([C@H](O)[C@H](O)CO)O[C@@](O[C@H]2[C@@H](O)[C@@H](CO)O[C@@H](O[C@H]3[C@H](O)[C@@H](O)C(O)O[C@@H]3CO)[C@@H]2O)(C(=O)O)C[C@@H]1O (stereo partly drawn) [sialyllactose, 3′-Sialyllactose]",VLPHIV-Gag-eGFP capture by Siglec-1 transfected Raji cells after pre-incubation with inhibitor,Siglec-1 [2],blocked VLP capture
